Consider six compounds from US8076073B2, “Cholesterol and hedgehog signaling” (The Johns Hopkins University School of Medicine, priority 1998, dated 2011).

Data set [1] deals with pregnant rats. As to conditions: treatment of pregnant rats; cited from earlier work.
Data set [2] deals with enzymes of cholesterol biosynthesis. As to conditions: cited from earlier work.
Data set [3] deals with 7-dehydrocholesterol reductase. As to conditions: cited from earlier work.
For data set [4], the system named is mice. The following applies: mice with hypomorphic apoB mutation (truncated apoB, reduced cholesterol levels); cited from earlier work.
Data set [5] has as its target T1, Hh protein (Drosophila melanogaster, UniProt Q02936).
T1 construct: made in house
T1 sequence (Q02936 1-471): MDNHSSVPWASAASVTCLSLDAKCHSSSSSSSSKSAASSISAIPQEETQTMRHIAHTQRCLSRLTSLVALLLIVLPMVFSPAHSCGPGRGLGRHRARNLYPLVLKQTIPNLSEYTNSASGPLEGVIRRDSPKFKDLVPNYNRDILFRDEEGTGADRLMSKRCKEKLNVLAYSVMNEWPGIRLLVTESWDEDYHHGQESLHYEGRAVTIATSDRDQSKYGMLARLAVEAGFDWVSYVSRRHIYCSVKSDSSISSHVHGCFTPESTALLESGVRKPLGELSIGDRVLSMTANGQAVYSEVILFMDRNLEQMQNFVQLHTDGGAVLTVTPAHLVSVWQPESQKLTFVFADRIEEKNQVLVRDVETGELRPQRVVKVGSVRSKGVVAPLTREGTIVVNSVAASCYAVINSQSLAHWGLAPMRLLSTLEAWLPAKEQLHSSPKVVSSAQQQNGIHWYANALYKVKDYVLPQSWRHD
The following applies: relatively low concentrations; nucleophile in the second step; cited from earlier work.

The test system of data set [6] is pregnant ewes / newborn lambs. The following applies: grazing by pregnant ewes; cited from earlier work.
In data set [7] the test system is COS7 cells. Briefly: Jervine inhibition of cholesterol biosynthesis, [3H]-mevalonic acid labelling and HPLC sterol analysis. Type of data set: cell-based. On the set-up: radiolabelled cholesterol levels / another radiolabelled sterol, tentatively identified as zymosterol: dose or concentration left out as unconfirmed. An excerpt:
Given the structural similarities of these compounds to cholesterol and the similar teratogenic effects of cholesterol synthesis inhibitors upon the offspring of pregnant rats, a reasonable mechanism to consider for the effects of these plant sterol derivatives was the inhibition of cholesterol biosynthesis. Accordingly, we tested COS7 cultured cells treated with jervine for defects in cholesterol biosynthesis by labelling with [3H]-mevalonic acid and then extracting and analyzing radiolabelled, non-saponifiable lipids. […] Given the similarities in their teratogenic effects, this inhibition seems likely to underlie the teratogenic effects of both the synthetic and natural compounds.
Given the structural similarities of these compounds to cholesterol and the similar teratogenic effects of cholesterol synthesis inhibitors upon the offspring of pregnant rats, a reasonable mechanism to consider for the effects of these plant sterol derivatives was the inhibition of cholesterol biosynthesis. Accordingly, COS7 cultured cells treated with jervine were tested for defects in cholesterol biosynthesis by labelling with [3H]-mevalonic acid and then extracting and analyzing radiolabelled, non-saponifiable lipids. Metabolic labeling and sterol analysis was essentially as described (Popjak et al. J. Biol. Chem. 264: 630-6238.1989; Rilling et al. 1993 Arch. Biochem. Biophys. 301: 210-215.), with minor modifications. Briefly, COS-7 cells were plated at ˜35% confluence into two 60 mm dishes at 37° C. in 4 ml each of Dulbecco's modified Eagle's medium (DMEM) supplemented with 10% fetal bovine serum (FBS). After 24 hr of growth the medium in each dish was replaced with 2 ml fresh medium with 10% FBS; [^3H]-mevalonic acid (NEN #NET 176) brought to a specific activity of 0.8 Ci/mmol in a 1% solution of bovine serum albumin was added to this medium to a final concentration of […]. At this time, one dish received […] of a 4 mg/ml solution of jervine in ethanol (final concentration […] jervine), and the other received […] of ethanol. […]

The mark [8] stands for this setting: COS7 cells labelled with [3H]-mevalonic acid, 24 hr, jervine (b16 and b71 print 28=|M), versus ethanol control.

The structures appear in SMILES notation. “Also recorded” adds a separate entry of the source.

With `Cl.Cl.Clc1ccccc1CNCC1CCC(CNCc2ccccc2Cl)CC1` (stereo not drawn) [AY 9944R], the “induction of HPE-like malformations” value in data set [1] is on record as “HPE-like malformations can be induced”. In data set [2], the “sterol precursor abnormally accumulated” value is recorded as 7-dehydrocholesterol. Moreover, in data set [3], the “inhibition of 7-dehydrocholesterol reductase” value was “inhibited”.

Consider `O=C(O)c1ccc(CCN2CCN(C/C=C/c3ccc(Cl)cc3)CC2)cc1` [BM 15.766], for which the “induction of HPE-like malformations” value in data set [1] is recorded as “HPE-like malformations can be induced”. The “sterol precursor abnormally accumulated” value in data set [2] was 7-dehydrocholesterol. The “inhibition of 7-dehydrocholesterol reductase” value in data set [3] is “inhibited”. The “teratogenesis, resulting defects” value in data set [4] is given as “severe holoprosencephaly”.

Consider `CC(C)CCC[C@@H](C)[C@H]1CC[C@H]2[C@@H]3CC=C4C[C@@H](O)CC[C@]4(C)[C@H]3CC[C@]12C` [Cholesterol, cholesterol], for which the “effect on in vitro autoprocessing reaction” value in data set [5] is recorded as “stimulates”.

For `CCN(CC)CCOc1ccc(C(O)(Cc2ccc(Cl)cc2)c2ccc(C)cc2)cc1` (stereo not drawn) [Triparanol], the “induction of HPE-like malformations” value in data set [1] is “HPE-like malformations can be induced”. Further, the “sterol precursor abnormally accumulated” value in data set [2] is given as “desmosterol”.

Take `CC1=C2C[C@H]3[C@@H](CC=C4C[C@@H](O)CC[C@@]43C)[C@@H]2CC[C@]12O[C@@H]1C[C@H](C)CN[C@H]1[C@H]2C` [cyclopamine]: the “congenital craniofacial malformations in newborn lambs” value in data set [6] is “responsible”.

Regarding `CC1=C2C(=O)[C@H]3[C@@H](CC=C4C[C@@H](O)CC[C@@]43C)[C@@H]2CC[C@]12O[C@@H]1C[C@H](C)CN[C@H]1[C@H]2C` [jervine], in data set [7] (setting [8]), the “another radiolabelled sterol, tentatively identified as zymosterol” value is recorded as “found to accumulate; also recorded: increased levels” and the radiolabelled cholesterol levels entry is “reduced levels”. Also, the “inhibition of cholesterol biosynthesis in cultured cells” value in data set [7] (COS7 cells, jervine at these concentrations) is reported as “inhibits cholesterol biosynthesis”. Further, the “congenital craniofacial malformations in newborn lambs” value in data set [6] is “responsible”.
